# Measured values reported in PubChem BioAssay (NCI).
#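 In this assay, cells in 96-well plates receive the compound at five concentrations for 48 hours. Endpoints are linearly interpolated between the surrounding concentrations. GI50: concentration for 50% inhibition of growth. TGI: total growth inhibition.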
# Experiments:
# Experiment in all cases: growth of human tumour cells (NCI), 48 h
# NCI-H522 lung = system: NCI-H522 lung
# T-47D breast = system: T-47D breast
# RPMI-8226 leukemia = system: RPMI-8226 leukemia
# EKVX NSCLC = system: EKVX NSCLC
# SF-539 CNS = system: SF-539 CNS
# MDA-MB-231 breast = system: MDA-MB-231 breast
# OVCAR-8 ovarian = system: OVCAR-8 ovarian
# BT-549 breast = system: BT-549 breast
# HL-60(TB) leukemia = system: HL-60(TB) leukemia
# PC-3 prostate = system: PC-3 prostate
# SR leukemia = system: SR leukemia
# 786-0 renal = system: 786-0 renal
# NCI-H460 lung = system: NCI-H460 lung
# SNB-19 CNS = system: SNB-19 CNS
# MDA-MB-435 = system: MDA-MB-435
# HT29 colon = system: HT29 colon
# SF-268 CNS = system: SF-268 CNS
# A549 NSCLC = system: A549 NSCLC
# HCT-116 colon = system: HCT-116 colon
# UO-31 renal = system: UO-31 renal
# SN12C renal = system: SN12C renal
# LOX IMVI melanoma = system: LOX IMVI melanoma
# U251 CNS = system: U251 CNS
# ACHN renal = system: ACHN renal
# NCI-H23 lung = system: NCI-H23 lung
# UACC-62 melanoma = system: UACC-62 melanoma
# SF-295 CNS = system: SF-295 CNS
# CAKI-1 renal = system: CAKI-1 renal
# HOP-62 NSCLC = system: HOP-62 NSCLC
# TK-10 renal = system: TK-10 renal
# OVCAR-3 ovarian = system: OVCAR-3 ovarian
# SK-MEL-5 melanoma = system: SK-MEL-5 melanoma
# KM12 colon = system: KM12 colon
# MCF7 breast = system: MCF7 breast
# OVCAR-5 ovarian = system: OVCAR-5 ovarian
# SK-OV-3 ovarian = system: SK-OV-3 ovarian
# MOLT-4 leukemia = system: MOLT-4 leukemia
# A498 renal = system: A498 renal
# HOP-92 NSCLC = system: HOP-92 NSCLC
# HCC-2998 colon = system: HCC-2998 colon
# MALME-3M melanoma = system: MALME-3M melanoma
# M14 melanoma = system: M14 melanoma
# RXF 393 renal = system: RXF 393 renal
# COLO 205 colon = system: COLO 205 colon
# OVCAR-4 ovarian = system: OVCAR-4 ovarian
# SK-MEL-28 melanoma = system: SK-MEL-28 melanoma
# NCI/ADR-RES ovarian = system: NCI/ADR-RES ovarian
# DU-145 prostate = system: DU-145 prostate
# HCT-15 colon = system: HCT-15 colon
# SK-MEL-2 melanoma = system: SK-MEL-2 melanoma
# UACC-257 melanoma = system: UACC-257 melanoma
# K-562 leukemia = system: K-562 leukemia
# IGROV1 ovarian = system: IGROV1 ovarian
# SW-620 colon = system: SW-620 colon
# SNB-75 CNS = system: SNB-75 CNS
# HS 578T breast = system: HS 578T breast
compound,measurement,setting,value
c1ccc(-c2nn(-c3ccccc3)[n+](-c3cccc4ccccc34)n2)cc1,GI50,NCI-H522 lung,0.979 µM
same,TGI,NCI-H522 lung,10.9 µM
same,GI50,T-47D breast,0.825 µM
same,TGI,T-47D breast,17.4 µM
same,GI50,RPMI-8226 leukemia,0.472 µM
same,TGI,RPMI-8226 leukemia,> 100 µM
same,GI50,EKVX NSCLC,0.583 µM
same,TGI,EKVX NSCLC,33.3 µM
same,GI50,SF-539 CNS,2.33 µM
same,TGI,SF-539 CNS,27.7 µM
same,GI50,MDA-MB-231 breast,0.787 µM
same,TGI,MDA-MB-231 breast,12.9 µM
same,GI50,OVCAR-8 ovarian,1.85 µM
same,TGI,OVCAR-8 ovarian,54.5 µM
same,GI50,BT-549 breast,1.85 µM
same,TGI,BT-549 breast,17.9 µM
same,GI50,HL-60(TB) leukemia,0.386 µM
same,TGI,HL-60(TB) leukemia,2.06 µM
same,GI50,PC-3 prostate,0.583 µM
same,TGI,PC-3 prostate,> 100 µM
same,GI50,SR leukemia,0.644 µM
same,TGI,SR leukemia,7.93 µM
same,GI50,786-0 renal,5.1 µM
same,TGI,786-0 renal,29.3 µM
same,GI50,NCI-H460 lung,1.43 µM
same,TGI,NCI-H460 lung,10.4 µM
same,GI50,SNB-19 CNS,2.01 µM
same,TGI,SNB-19 CNS,> 100 µM
same,GI50,MDA-MB-435,0.961 µM
same,TGI,MDA-MB-435,2.67 µM
same,GI50,HT29 colon,0.918 µM
same,TGI,HT29 colon,15.1 µM
same,GI50,SF-268 CNS,2.04 µM
same,TGI,SF-268 CNS,20.5 µM
same,GI50,A549 NSCLC,2.65 µM
same,TGI,A549 NSCLC,> 100 µM
same,GI50,HCT-116 colon,0.708 µM
same,TGI,HCT-116 colon,17.9 µM
same,GI50,UO-31 renal,14 µM
same,TGI,UO-31 renal,> 100 µM
same,GI50,SN12C renal,2.45 µM
same,TGI,SN12C renal,> 100 µM
same,GI50,LOX IMVI melanoma,1.23 µM
same,TGI,LOX IMVI melanoma,> 100 µM
same,GI50,U251 CNS,0.967 µM
same,TGI,U251 CNS,> 100 µM
same,GI50,ACHN renal,12 µM
same,TGI,ACHN renal,> 100 µM
same,GI50,NCI-H23 lung,0.994 µM
same,TGI,NCI-H23 lung,12.8 µM
same,GI50,UACC-62 melanoma,1.14 µM
same,TGI,UACC-62 melanoma,3.59 µM
same,GI50,SF-295 CNS,2.69 µM
same,TGI,SF-295 CNS,26.6 µM
same,GI50,CAKI-1 renal,37.1 µM
same,TGI,CAKI-1 renal,> 100 µM
same,GI50,HOP-62 NSCLC,1.39 µM
same,TGI,HOP-62 NSCLC,33.2 µM
same,GI50,TK-10 renal,8.53 µM
same,TGI,TK-10 renal,73.6 µM
same,GI50,OVCAR-3 ovarian,1.11 µM
same,TGI,OVCAR-3 ovarian,19.1 µM
same,GI50,SK-MEL-5 melanoma,0.674 µM
same,TGI,SK-MEL-5 melanoma,4.1 µM
same,GI50,KM12 colon,0.701 µM
same,TGI,KM12 colon,11.3 µM
same,GI50,MCF7 breast,0.335 µM
same,TGI,MCF7 breast,10.6 µM
same,GI50,OVCAR-5 ovarian,4.78 µM
same,TGI,OVCAR-5 ovarian,63.2 µM
same,GI50,SK-OV-3 ovarian,4.61 µM
same,TGI,SK-OV-3 ovarian,> 100 µM
same,GI50,MOLT-4 leukemia,1.3 µM
same,TGI,MOLT-4 leukemia,15.8 µM
same,GI50,A498 renal,2.91 µM
same,TGI,A498 renal,33.8 µM
same,GI50,HOP-92 NSCLC,1.15 µM
same,TGI,HOP-92 NSCLC,7.68 µM
same,GI50,HCC-2998 colon,1.91 µM
same,TGI,HCC-2998 colon,14.8 µM
same,GI50,MALME-3M melanoma,0.333 µM
same,TGI,MALME-3M melanoma,1.13 µM
same,GI50,M14 melanoma,3.09 µM
same,TGI,M14 melanoma,23.1 µM
same,GI50,RXF 393 renal,2.24 µM
same,TGI,RXF 393 renal,31.4 µM
same,GI50,COLO 205 colon,0.313 µM
same,TGI,COLO 205 colon,1.28 µM
same,GI50,OVCAR-4 ovarian,0.394 µM
same,TGI,OVCAR-4 ovarian,12.4 µM
same,GI50,SK-MEL-28 melanoma,2.36 µM
same,TGI,SK-MEL-28 melanoma,13.9 µM
same,GI50,NCI/ADR-RES ovarian,> 100 µM
same,TGI,NCI/ADR-RES ovarian,> 100 µM
same,GI50,DU-145 prostate,4.26 µM
same,TGI,DU-145 prostate,> 100 µM
same,GI50,HCT-15 colon,31.5 µM
same,TGI,HCT-15 colon,> 100 µM
same,GI50,SK-MEL-2 melanoma,2.92 µM
same,TGI,SK-MEL-2 melanoma,12 µM
same,GI50,UACC-257 melanoma,0.48 µM
same,TGI,UACC-257 melanoma,8.18 µM
same,GI50,K-562 leukemia,0.608 µM
same,TGI,K-562 leukemia,16.1 µM
same,GI50,IGROV1 ovarian,1.59 µM
same,TGI,IGROV1 ovarian,40.8 µM
same,GI50,SW-620 colon,1.44 µM
same,TGI,SW-620 colon,15.9 µM
same,GI50,SNB-75 CNS,1.94 µM
same,TGI,SNB-75 CNS,14.8 µM
same,GI50,HS 578T breast,1.77 µM
same,TGI,HS 578T breast,> 100 µM
